Key:
FB = FB (Homo sapiens, UniProt P00751); assay: biochemical
C3a levels in mice = assay: Biological Test Example 4: LPS mouse model, plasma C3a level; assay type: in vivo; settings: compound given 3.5 h after LPS, plasma at 7.5 h
Procedure: Mice were intravenously given 0.5 mg/ml LPS solution at 100 μL/mouse to create a model, and the naive group was given physiological saline. Mice were given the compounds 3.5 h after injection of physiological saline/LPS solution, and the naive group and model group were given vehicle (0.5% MC+0.5% Tween 80). 7.5 h after the mice in each group were injected with physiological saline/LPS, blood was collected from the orbit and the plasma was separated. The plasma C3a level was detected using mouse C3a ELISA kit (NOVUS/NBP2-70037), and the inhibition rate of C3a was calculated. The formula is as follows: […]
Among them: Ct, C3a level after administration; Cnaive, C3a level of naive group; Cmodel, C3a level of model group.

[1] = tested on: complement alternative pathway; assay: Biological Test Example 2: complement alternative pathway inhibition, IBL alternative pathway kit, serum from healthy volunteers; assay type: biochemical, human; settings: LPS-coated plate, 37 °C 1 h, read-out: IC50 for inhibiting alternative pathway
Procedure: The inhibitory effect of the compounds on the complement alternative pathway was detected using the IBL alternative pathway kit (COMPL AP330 RUO). Serum from healthy volunteers was collected and 1 portion was diluted with a buffer of 20 mM EDTA in gelatin (0.15 mM CaCl2, 141 mM NaCl, 4.5 mM MgCl2, 4.2 mM HEPES, and 0.1% gelatin at pH 7.4) to 50% (v/v), and 1 portion was diluted to 50% (v/v) with a buffer of 20 mM EGTA in gelatin. The compounds were prepared in DMSO to a working solution 100 times the final concentration. Before use, 50% of the above serum was diluted 1/18 with the AP diluent in the kit. 1 part of the compound working solution (v/v) or DMSO (positive control PC) was added to 99 parts of the diluted serum containing EGTA for pretreatment for 30 min, and 1 part of DMSO (v/v) was added to 99 parts of the diluted serum containing EDTA, as negative control (NC). The serum pretreated with the above compounds (or DMSO) was added at […] to the LPS-coated 96-well plate, incubated at 37° C. for 1 h, and the plate was washed 3 times with washing solution in the kit; the conjugated chromogenic substrate was added according to the instruction in the kit, and the absorbance was read at 405 nm with a microplate reader. The inhibitory activity of the compounds on alternative pathway was calculated using the following formula.
OD^CPD was the OD value when the inhibitor was added, OD^NC was the OD value of the negative control, and OD^PC was the OD value of the positive control.
Graphpad was used to perform nonlinear regression on the final concentrations and inhibition rates of the compounds to obtain the IC50 of the compounds for inhibiting the alternative pathway.

[2] = Pharmacokinetic test of dogs; assay type: in vivo; settings: male, beagle, dog, plasma, po, i.g. (5 mg/kg)
Procedure: (§1) Test objective: In this experiment, a single dose of test compounds was administered to beagle dogs intravenously and intragastrically, and the concentrations of the test compounds in plasma of the beagle dogs were measured to evaluate pharmacokinetic characteristics of the test compounds in the beagle dogs.
Experimental animals: Male beagle dogs, 8-11 kg, 1-3 years old, 6 dogs/compound. purchased from Beijing Marshall Biotechnology Co. Ltd.
Experimental method: on the day of the test, 6 beagle dogs were randomly grouped according to their body weights. The animals were fasted with water available for 14 to 18 hours one day before the administration of a test compound, and were fed 4 hours after the administration.
Sampling: Before and after the administration, 1.0 mL of blood was taken from the jugular veins or limb veins, and placed in an EDTAK2 centrifuge tube. Centrifugation was carried out at 5000 rpm at 4° C. for 10 min, and the plasma was collected.
(§2) Time points for plasma collection in IV&PO group: 0, 5 min, 15 min, 30 min, 1 h, 2 h, 4 h, 6 h, 8h, 10 h, 12h, and 24 h.
(§3) Before analysis and detection, all samples were stored at −60° C. The samples were analyzed quantitatively by LC-MS/MS.

Caco-2 cells = assay: Caco2 permeability test; assay type: in vitro ADME; settings: Caco2, compared with the trifluoroacetate of LNP023, in words
Procedure: (§4) The experiment used a monolayer of Caco-2 cells incubated in triplicate in a 96-well Transwell plate. […] Acetonitrile containing internal standard was then added to precipitate the protein. […] The integrity of the cell monolayer after 2 h of incubation was assessed by leakage of Lucifer Yellow.

Caco2 permeability test = assay type: in vitro ADME; settings: human; Caco-2 monolayer, 2 μM, 2 h, pH 7.4
Procedure: as §4

[3] = Stability in liver microsome (RLM); assay type: in vitro ADME, rat; settings: 0.50 mg/mL microsomal protein, 1.00 μM, NADPH, 37 °C
Procedure: (§5) The total volume of the incubation system was 100 μL, the medium was 100 mM phosphate buffer (PBS, pH 7.4), including liver microsomal protein with a final concentration of 0.50 mg/mL, 1.00 μM test substance and 1.00 mM NADPH, 37° C. water bath was used for incubation, and 300 μL of ice-cold acetonitrile containing internal standard was added to terminate the reaction after 0, 5, 10, 20, 30, and 60 min of reaction, respectively. The negative control was incubated with heat-inactivated liver microsomes of the corresponding species, and the incubation time points were 0 and 60 min respectively. The LC/MS/MS method was used to detect the concentration of the test substance in the sample and the remaining rate of the compound was calculated.

[4] = Stability in liver microsome (HLM); assay type: in vitro ADME, human; settings: 0.50 mg/mL microsomal protein, 1.00 μM, NADPH, 37 °C
Procedure: as §5

[5] = Stability in liver microsome (MouLM); assay type: in vitro ADME, mouse; settings: 0.50 mg/mL microsomal protein, 1.00 μM, NADPH, 37 °C
Procedure: as §5

[6] = Stability in liver microsome (CLM); assay type: in vitro ADME, cynomolgus monkey; settings: 0.50 mg/mL microsomal protein, 1.00 μM, NADPH, 37 °C
Procedure: as §5

[7] = Pharmacokinetic experiment in monkeys; assay type: in vivo, cynomolgus monkeys; settings: compared with the trifluoroacetate of LNP023, in words
Procedure: as §1, with “to cynomolgus monkeys” for “to beagle dogs”, “the monkeys” for “the beagle dogs”, “the monkeys.” for “the beagle dogs.”
Experimental animals: Male cynomolgus monkeys, 3-5 kg, 3-6 years old, 6 monkeys/compound. Purchased from Suzhou Xishan Biotechnology Inc.
Experimental method: on the day of the test, 6 monkeys were randomly grouped according to their body weights. The animals were fasted with water available for 14 to 18 hours one day before the administration of a test compound, and were fed 4 hours after the administration.
Sampling: before and after the administration, 1.0 mL of blood was taken from the limb veins, and placed in an EDTAK2 centrifuge tube. Centrifugation was carried out at 5000 rpm at 4° C. for 10 min, and the plasma was collected.
as §2, §3

[8] = Stability in liver microsome (DLM); assay type: in vitro ADME, dog; settings: 0.50 mg/mL microsomal protein, 1.00 μM, NADPH, 37 °C
Procedure: as §5

[9] = Pharmacokinetic test in mice; assay type: in vivo; settings: male, C57, mouse, plasma, po, i.g. (10 mg/kg)
Procedure: Test objective: In this experiment, a single dose of test compounds was administered to C57 mice intravenously and intragastrically, the concentrations of the test compounds in plasma of mice were measured, and the pharmacokinetic characteristics of the test compounds in mice were evaluated.
Experimental animals: Male C57 mice, 20-25 g, 6-8 weeks old, 18 mice/compound. purchased from Chengdu Ddossy Experimental Animals Co., Ltd.
Experimental method: On the day of the experiment, 18 C57 mice were randomly grouped according to their body weight. The animals were fasted with water available for 12 to 14 hours one day before the administration of a test compound, and were fed 4 hours after the administration.
Sampling: Before and after the administration, 0.08 mL of blood sample was drawn from the orbit under isoflurane anesthesia, and placed in an EDTAK2 centrifuge tube. Centrifugation was carried out at 5000 rpm at 4° C. for 10 min, and the plasma was collected.
Time points for plasma collection in IV&PO group: 0, 5 min, 15 min, 30 min, 1 h, 2 h, 4 h, 6 h, 8h, and 24 h.
as §3

Chain of FB (P00751 260-764 limits assumed): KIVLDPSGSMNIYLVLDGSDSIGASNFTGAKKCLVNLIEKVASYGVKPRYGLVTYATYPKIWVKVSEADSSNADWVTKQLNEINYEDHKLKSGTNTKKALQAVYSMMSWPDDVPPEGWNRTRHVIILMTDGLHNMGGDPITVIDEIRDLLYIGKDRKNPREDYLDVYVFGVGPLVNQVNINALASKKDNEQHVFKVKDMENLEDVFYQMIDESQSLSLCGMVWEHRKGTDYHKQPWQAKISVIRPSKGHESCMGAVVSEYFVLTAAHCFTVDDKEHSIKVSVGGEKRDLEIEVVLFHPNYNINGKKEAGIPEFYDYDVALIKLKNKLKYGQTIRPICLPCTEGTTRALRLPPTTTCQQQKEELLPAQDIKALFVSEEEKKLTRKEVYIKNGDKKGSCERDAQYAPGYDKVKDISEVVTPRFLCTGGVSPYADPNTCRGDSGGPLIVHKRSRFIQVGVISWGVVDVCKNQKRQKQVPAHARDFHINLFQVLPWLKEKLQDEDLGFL
Chain of FB (Q91132 23-649 partner limits assumed): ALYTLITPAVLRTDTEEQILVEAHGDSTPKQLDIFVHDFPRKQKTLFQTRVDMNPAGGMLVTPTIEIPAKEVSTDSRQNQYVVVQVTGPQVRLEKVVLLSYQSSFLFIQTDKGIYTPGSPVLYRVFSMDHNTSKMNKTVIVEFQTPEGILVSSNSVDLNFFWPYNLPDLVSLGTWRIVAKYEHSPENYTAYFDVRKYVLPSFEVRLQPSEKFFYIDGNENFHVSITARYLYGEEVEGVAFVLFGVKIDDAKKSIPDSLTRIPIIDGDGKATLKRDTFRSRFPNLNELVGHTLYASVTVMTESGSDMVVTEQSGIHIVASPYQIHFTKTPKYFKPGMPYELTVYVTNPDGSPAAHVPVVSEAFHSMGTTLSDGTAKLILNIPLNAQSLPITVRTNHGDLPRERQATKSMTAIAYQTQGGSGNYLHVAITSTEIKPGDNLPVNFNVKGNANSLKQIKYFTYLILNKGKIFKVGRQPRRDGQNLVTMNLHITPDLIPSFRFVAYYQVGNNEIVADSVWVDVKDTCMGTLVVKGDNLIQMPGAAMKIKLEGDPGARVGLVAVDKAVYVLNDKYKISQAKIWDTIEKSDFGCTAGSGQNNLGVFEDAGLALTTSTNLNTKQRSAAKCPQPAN
Chain of FB (Q91132 733-984 partner limits assumed): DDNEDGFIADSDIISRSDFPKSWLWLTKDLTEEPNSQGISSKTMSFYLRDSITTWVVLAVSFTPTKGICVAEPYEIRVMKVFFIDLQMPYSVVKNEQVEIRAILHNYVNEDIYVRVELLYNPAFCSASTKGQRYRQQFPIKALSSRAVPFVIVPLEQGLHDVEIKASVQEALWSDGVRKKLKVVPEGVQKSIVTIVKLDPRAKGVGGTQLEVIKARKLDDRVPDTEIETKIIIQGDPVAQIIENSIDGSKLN
Chain of FB (Q91132 1264-1642 partner limits assumed): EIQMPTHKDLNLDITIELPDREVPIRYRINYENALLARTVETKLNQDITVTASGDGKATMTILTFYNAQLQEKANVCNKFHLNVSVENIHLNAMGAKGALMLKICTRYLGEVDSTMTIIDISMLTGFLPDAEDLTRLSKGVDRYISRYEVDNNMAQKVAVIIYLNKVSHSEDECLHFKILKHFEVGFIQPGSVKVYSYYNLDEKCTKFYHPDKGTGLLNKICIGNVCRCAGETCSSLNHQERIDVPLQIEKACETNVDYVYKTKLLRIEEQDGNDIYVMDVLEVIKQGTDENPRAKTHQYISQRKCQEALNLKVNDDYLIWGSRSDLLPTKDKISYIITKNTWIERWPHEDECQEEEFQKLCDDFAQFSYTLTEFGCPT

| bioavailability [2] | AUC(0-t) [2] | half-life [2] | permeability (Caco-2 cells) | Papp A→B at 2 h, 2 μM (Caco2 permeability test) | Papp B→A at 2 h, 2 μM (Caco2 permeability test) | Remaining % (T = 60 min) RLM0.5 [3] | Remaining % (T = 60 min) HLM0.5 [4] | Remaining % (T = 60 min) MouLM0.5 [5] | Remaining % (T = 60 min) CLM0.5 [6] | bioavailability in monkeys [7] | oral exposure in monkeys [7] | Remaining % (T = 60 min) DLM0.5 [8] | bioavailability [9] | AUC(0-t) [9] | Compound | IC50 (FB) | Inhibition rate of C3a levels in mice (C3a levels in mice; Dosage 30 mg/kg) | Inhibition rate of C3a levels in mice (C3a levels in mice; Dosage 60 mg/kg) | IC50 [1] |
| --- | --- | --- | --- | --- | --- | --- | --- | --- | --- | --- | --- | --- | --- | --- | --- | --- | --- | --- | --- |
| – | – | – | – | – | – | – | – | – | – | – | – | – | – | – | COc1cc(C)c2[nH]ccc2c1CN1CCC2(CCCO2)C[C@H]1c1ccc(C(=O)O)cc1 (single isomer, unassigned) [Trifluoroacetate of compound 2-b (diastereomer 2)] | < 500 nM | 35.04% | 73.12% | < 200 nM |
| 62.6% | 49300 ng·h/mL | 20.9 h | better | 2.17 ×10⁻⁶ cm/s | 23.9 ×10⁻⁶ cm/s | >90% | >90% | >90% | >90% | higher | higher | >90% | 81.5% | 15900 ng·h/mL | COc1cc(C)c2[nH]ccc2c1CN1CC[C@@H](C2CC2)C[C@H]1c1ccc(C(=O)O)cc1 [Trifluoroacetate of compound 5 (diastereomer 1), 4-((2S)-4-cyclopropyl-1-((5-methoxy-7-methyl-1H-indol-4-yl)methyl)piperidin-2-yl)benzoic acid] | – | – | – | < 200 nM |
